This is an account of results in patent US10087478B2, “Compositions comprising a polypeptide having cellulolytic enhancing activity and a nitrogen-containing compound and uses thereof” (priority 2010, dated 2018).

Data set [1] relates to Trichoderma reesei cellulase composition. The data set is described as follows: Nitrogen-containing compound effect(no GH61) on hydrolysis of AVICEL by T. reesei cellulase composition. It counts as biochemical. The following applies: for reduction in hydrolysis: no GH61. As for the experimental part: The concentration of 1,2-benzenediamine compounds was 5 mM and the concentration of 2-aminophenol was 1 mM.
The concentration of nitrogen-containing compounds was 5 mM.
(§1) The concentration of the GH61 polypeptide was either 0.4 or 2 mg per g cellulose.

Data set [2] relates to Penicillium pinophilum GH61A polypeptide. The experiment in a line: Effect of TEMPO on P. pinophilum GH61A during AVICEL hydrolysis by T. reesei cellulase composition. The class given is biochemical. The following applies: GH61 0.4 or 2 mg per g cellulose, day 7. As for the experimental part:
as §1

In data set [3] the target is Aspergillus fumigatus GH61B polypeptide (Aspergillus fumigatus, UniProt Q4WP32). The experiment in a line: Effect of TEMPO on A. fumigatus GH61B during AVICEL hydrolysis by T. reesei cellulase composition. To be noted: GH61 0.4 or 2 mg per g cellulose, day 7. The class given is biochemical. On the procedure: as §1
For data set [4], the system named is Talaromyces stipitatus GH61 polypeptide. The data set is described as follows: Effect of TEMPO on T. stipitatus GH61 during AVICEL hydrolysis by T. reesei cellulase composition. To be noted: GH61 0.4 or 2 mg per g cellulose, day 7. The class given is biochemical. On the procedure: as §1
Data set [5] deals with Trichoderma reesei GH61B polypeptide (Trichoderma reesei, UniProt Q7Z9M7). The data set is described as follows: Effect of TEMPO on T. reesei GH61B during AVICEL hydrolysis by T. reesei cellulase composition. To be noted: GH61 0.4 or 2 mg per g cellulose, day 7. It counts as biochemical. As for the experimental part: as §1
Data set [6] deals with Thielavia terrestris GH61E polypeptide. The experiment in a line: Effect of TEMPO on T. terrestris GH61E during AVICEL hydrolysis by T. reesei cellulase composition. It counts as biochemical. As for the experimental part: as §1
Data set [7] relates to Trichoderma reesei cellulase composition. The data set is described as follows: Hydrolysis of AVICEL by T. reesei cellulase composition with and without GH61 polypeptide, no nitrogen-containing compound. It counts as biochemical. The source says: Microcrystalline cellulose was used as the source of the cellulosic material.
Data set [8] has as its system T. reesei cellulase composition. The data set is described as follows: AVICEL cellulolysis by T. reesei cellulase composition with combinations of compounds and various GH61 polypeptides. It counts as biochemical, Trichoderma reesei.
The mark [9] stands for this setting: pterin dissolved in DMSO, cellulose 29.5 mg per ml, 7 days.
The mark [10] stands for this setting: Example 6, 5 mM compound, 14 mg/ml AVICEL, 1, 3, 5, 7 or 8 days (FIG. 2 white bars).

Sequence of Trichoderma reesei GH61B polypeptide (Q7Z9M7 20-249): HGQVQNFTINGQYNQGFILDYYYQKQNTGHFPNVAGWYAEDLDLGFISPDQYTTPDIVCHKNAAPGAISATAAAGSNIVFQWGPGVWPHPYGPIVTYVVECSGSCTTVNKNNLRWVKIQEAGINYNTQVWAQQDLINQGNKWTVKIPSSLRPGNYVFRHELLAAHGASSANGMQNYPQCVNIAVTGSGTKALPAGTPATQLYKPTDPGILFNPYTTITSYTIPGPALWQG

With `Nc1ccccc1N` [1,2-benzenediamine], the “nitrogen-containing compound effect(no GH61)” value in data set [1] (5 mM compound, 14 mg/ml AVICEL, 1, 5 and 8 days (FIG. 1A)) is recorded as “less than 1”.
Regarding `Nc1ccccc1O` [2-aminophenol], the “nitrogen-containing compound effect(no GH61)” value is listed as 0.951±0.0198 in data set [1] (1 mM 2-aminophenol, cellulose 29.5 mg per ml, 3 days) and 0.902±0.0301 in data set [1] (1 mM 2-aminophenol, cellulose 29.5 mg per ml, 7 days). In addition, the reduction in hydrolysis result is recorded as “approximately 5%” in data set [1] (1 mM 2-aminophenol, 3 days) and “approximately 10%” in data set [1] (1 mM 2-aminophenol, 7 days).
In the case of `CC1Nc2nc(N)[nH]c(=O)c2NC1C.Cl` (stereo not shown) [6,7-dimethyl-5,6,7,8-tetrahydropterine hydrochloride], the “nitrogen-containing compound effect(no GH61)” value in data set [1] (pterin dissolved in DMSO, cellulose 29.5 mg per ml, 1 day (so in the source)) is 0.715±0.00557; in data set [1] (setting [9]) it was 0.684±0.0203.
With `C[C@H](O)[C@H](O)[C@H]1CNc2nc(N)[nH]c(=O)c2N1.Cl.Cl` [(6R)-5,6,7,8-tetrahydrobiopterin dihydrochloride], the “nitrogen-containing compound effect(no GH61)” value is given as 0.924±0.0191 in data set [1] (pterin dissolved in DMSO, cellulose 29.5 mg per ml, 3 days) and 0.901±0.0332 in data set [1] (setting [9]).
For `CC1(C)CCCC(C)(C)N1[O]` [TEMPO, 2,2,6,6-tetramethyl-1-piperidinyloxy], the “nitrogen-containing compound effect(no GH61)” value in data set [1] (setting [10]) was “less than 1”; in data set [1] (Example 7, TEMPO, late stage of hydrolysis, day 7 (FIGS. 3A, 3B)) it was “less than 1”. For the same molecule, the GH61 effect result in data set [2] is listed as “greater than 1”; in data set [3], “greater than 1”; in data set [4] it was “greater than 1”; in data set [5] it was “greater than 1”; in data set [6] (GH61 0.4 or 2 mg per g cellulose, day 1), “greater than 1”. Also, the “nitrogen-containing compound effect(+GH61)” value is “less than 1” in data set [2]; “less than 1” in data set [3] (late stage); “less than 1” in data set [4]; “less than 1” in data set [5]; about 1 in data set [6] (GH61 0.4 or 2 mg per g cellulose, 1, 3 and 7 days).
On to `CC(C)=NO` [acetone oxime], for which the “nitrogen-containing compound effect(no GH61)” value in data set [1] (setting [10]) is “less than 1”.
Still for that read-out and setting: the result for `ON=Cc1ccccn1` [pyridine-2-aldoxime] reads “slightly decreased”; that for `O=C1NC(=O)C(=NO)C(=O)N1` [violuric acid], “very slightly impacted”.

B1: T. aurantiacus GH61A polypeptide: GH61A polypeptide having cellulolytic enhancing activity, SEQ ID NO: 14, recombinantly prepared in Aspergillus oryzae JaL250 (protein, listed as Thermoascus aurantiacus)
chain: MSFSKIIATAGVLASASLVAGHGFVQNIVIDGKYYGGYLVNQYPYMSNPPEVIAWSTTATDLGFVDGTGYQTPDIICHRGAKPGALTAPVSPGGTVELQWTPWPDSHHGPVINYLAPCNGDCSTVDKTQLEFFKIAESGLINDDNPPGIWASDNLIAANNSWTVTIPTTIAPGNYVLRHEIIALHSAQNQDGAQNYPQCINLQVTGGGSDNPAGTLGTALYHDTDPGILINIYQKLSSYIIPGPPLYTG
As for B1, the “Percent conversion of AVICEL” value in data set [7] (14 mg/ml AVICEL, cellulase 4 mg/g cellulose, GH61 0.4 mg/g where present, pH 5.0, 50° C., 1 day) was 16±1%; in data set [7] (same conditions, 3 days), 30±4%; in data set [7] (same conditions, 5 days), 42.7±0.9%; in data set [7] (same conditions, 7 days), 45±4%; in data set [7] (same conditions, 8 days) it was 52.9±0.8%. Besides, the “overall conversion of AVICEL, comparison of GH61 polypeptides” value in data set [8] (most mixtures of compounds at 1 mM) is reported as “greatest overall conversion”.

B2: A. fumigatus GH61B polypeptide: GH61 polypeptide having cellulolytic enhancing activity, SEQ ID NO: 30, recombinantly prepared in Aspergillus oryzae JaL355 (protein, listed as Aspergillus fumigatus)
chain: MTLSKITSIAGLLASASLVAGHGFVSGIVADGKYYGGYLVNQYPYMSNPPDTIAWSTTATDLGFVDGTGYQSPDIICHRDAKNGKLTATVAAGSQIEFQWTTWPESHHGPLITYLAPCNGDCATVDKTTLKFVKIAAQGLIDGSNPPGVWADDEMIANNNTATVTIPASYAPGNYVLRHEIIALHSAGNLNGAQNYPQCFNIQITGGGSAQGSGTAGTSLYKNTDPGIKFDIYSDLSGGYPIPGPALFNA
Take B2: the “overall conversion of AVICEL, comparison of GH61 polypeptides” value in data set [8] (mixtures of compounds at 3 mM) was “highest overall conversion”.
